Test results reported in ChEMBL document CHEMBL1151156, “Lakoochins A and B, new antimycobacterial stilbene derivatives from Artocarpus lakoocha” (J Nat Prod, 2004).
In brackets after ≈: the same amount, converted by molar mass. Activity calls are given as the source filed them. The rule behind the calls is not given here.

What was measured:
KB [1] = experiment: Cytotoxicity against human KB cells by SRB assay; type: functional, cell-based
[2] = Cytotoxicity against human BC cells by SRB assay; type: functional, cell-based
[3] = system: Mycobacterium tuberculosis; experiment: Antimycobacterial activity against Mycobacterium tuberculosis H37Ra after 4 days by microplate alamar blue assay; type: functional; conditions: 96 h
KB [4] = experiment: Cytotoxicity against human KB cells at 20 ug/ml by SRB assay; type: functional, cell-based

SMILES	IC50 (KB [1])	IC50 [2]	MIC [3]	Activity (KB [4])
CC(C)=CCC/C(C)=C/Cc1c(O)cc(O)c(CC=C(C)C)c1-c1cc2ccc(O)cc2o1 [LAKOOCHIN B]	6.1 µg/mL (≈ 13.7 µM)	3.1 µg/mL (≈ 6.94 µM)	50 µg/mL (≈ 112 µM)	
NC[C@H]1O[C@H](O[C@H]2[C@H](O)[C@@H](O[C@H]3O[C@H](CO)[C@@H](O)[C@H](N)[C@H]3O)[C@H](N)C[C@@H]2N)[C@H](O)[C@@H](O)[C@@H]1O.O=S(=O)(O)O [KANAMYCIN SULFATE]			2 µg/mL	
Cc1c2ccncc2c(C)c2c1[nH]c1ccccc12 [ELLIPTECINE]		0.2 µg/mL (≈ 0.812 µM)		
NNC(=O)c1ccncc1 [ISONIAZID]			0.04 µg/mL (≈ 0.292 µM)	
COc1cc(OC)c(CC=C(C)C)c(-c2cc3ccc(O)cc3o2)c1CC=C(C)C [LAKOOCHIN A]		6.1 µg/mL (≈ 15 µM)	12.5 µg/mL (≈ 30.7 µM)	inactive
